Assay results: ChEMBL document CHEMBL3421625, “Discovery and optimization of novel antagonists to the human neurokinin-3 receptor for the treatment of sex-hormone disorders (Part I)” (J Med Chem, 2015)
In brackets after ≈: the same amount, converted by molar mass.

Legend:
[1] = Solubility of the compound in PBS buffer at pH 7.4 by shake-flask method; assay type: physicochemical
Neuromedin-K receptor [2] = biological target: T1, Neuromedin-K receptor (Homo sapiens, UniProt P29371)
T1 sequence (P29371 whole entry): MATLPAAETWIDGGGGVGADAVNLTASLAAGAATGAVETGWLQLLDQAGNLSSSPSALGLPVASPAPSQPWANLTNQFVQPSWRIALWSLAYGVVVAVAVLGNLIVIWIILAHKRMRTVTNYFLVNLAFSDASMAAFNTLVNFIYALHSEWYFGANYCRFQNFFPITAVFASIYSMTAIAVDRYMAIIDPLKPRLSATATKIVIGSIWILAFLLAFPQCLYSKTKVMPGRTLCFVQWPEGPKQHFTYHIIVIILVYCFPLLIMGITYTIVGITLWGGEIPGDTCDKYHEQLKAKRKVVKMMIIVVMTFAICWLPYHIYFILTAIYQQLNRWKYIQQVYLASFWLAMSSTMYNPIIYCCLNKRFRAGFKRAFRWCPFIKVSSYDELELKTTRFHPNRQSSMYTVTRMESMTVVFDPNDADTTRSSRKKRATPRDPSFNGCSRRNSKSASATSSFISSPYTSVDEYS

Neuromedin-K receptor [3] = biological target: T1, Neuromedin-K receptor; assay: biochemical
Description: Displacement of [3H]-SB222200 from recombinant human NK3R expressed in CHO cell membranes after 90 mins by scintillation counting analysis

Cytochrome P450 2D6 = Cytochrome P450 2D6 (Homo sapiens, UniProt P10635); assay: Inhibition of CYP2D6 (unknown origin) by luciferase reporter assay in presence of NADPH regeneration system; assay type: ADME
Cytochrome P450 3A4 = Cytochrome P450 3A4 (Homo sapiens, UniProt P08684); assay: Inhibition of CYP3A4 (unknown origin) by luciferase reporter assay in presence of NADPH regeneration system; assay type: ADME
Cytochrome P450 1A2 = biological target: T2, Cytochrome P450 1A2 (Homo sapiens, UniProt P05177); assay: Inhibition of CYP1A2 (unknown origin) by luciferase reporter assay in presence of NADPH regeneration system; assay type: ADME
T2 sequence (P05177 whole entry): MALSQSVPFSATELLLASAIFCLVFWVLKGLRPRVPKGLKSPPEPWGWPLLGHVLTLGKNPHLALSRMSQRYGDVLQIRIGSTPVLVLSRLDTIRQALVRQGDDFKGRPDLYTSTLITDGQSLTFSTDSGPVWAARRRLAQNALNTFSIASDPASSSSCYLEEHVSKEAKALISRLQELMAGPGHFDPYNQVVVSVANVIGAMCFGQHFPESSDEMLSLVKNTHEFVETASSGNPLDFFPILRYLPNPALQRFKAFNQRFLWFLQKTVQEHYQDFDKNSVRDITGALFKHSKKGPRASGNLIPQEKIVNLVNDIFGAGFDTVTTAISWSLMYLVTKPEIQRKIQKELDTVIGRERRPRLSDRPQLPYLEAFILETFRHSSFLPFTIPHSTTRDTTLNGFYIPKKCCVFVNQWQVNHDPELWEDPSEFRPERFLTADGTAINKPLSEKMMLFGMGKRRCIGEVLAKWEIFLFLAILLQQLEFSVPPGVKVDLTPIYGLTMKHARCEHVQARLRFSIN

[4] = Lipophilicity, log D of the compound at pH 7.4; assay type: physicochemical; conditions: buffer, read-out: logD
Cytochrome P450 2C9 = Cytochrome P450 2C9 (Homo sapiens, UniProt P11712); assay: Inhibition of CYP2C9 (unknown origin) by luciferase reporter assay in presence of NADPH regeneration system; assay type: ADME
Cytochrome P450 2C19 = Cytochrome P450 2C19 (Homo sapiens, UniProt P33261); assay: Inhibition of CYP2C19 (unknown origin) by luciferase reporter assay in presence of NADPH regeneration system
Chain of Cytochrome P450 2C19 (P33261 whole entry): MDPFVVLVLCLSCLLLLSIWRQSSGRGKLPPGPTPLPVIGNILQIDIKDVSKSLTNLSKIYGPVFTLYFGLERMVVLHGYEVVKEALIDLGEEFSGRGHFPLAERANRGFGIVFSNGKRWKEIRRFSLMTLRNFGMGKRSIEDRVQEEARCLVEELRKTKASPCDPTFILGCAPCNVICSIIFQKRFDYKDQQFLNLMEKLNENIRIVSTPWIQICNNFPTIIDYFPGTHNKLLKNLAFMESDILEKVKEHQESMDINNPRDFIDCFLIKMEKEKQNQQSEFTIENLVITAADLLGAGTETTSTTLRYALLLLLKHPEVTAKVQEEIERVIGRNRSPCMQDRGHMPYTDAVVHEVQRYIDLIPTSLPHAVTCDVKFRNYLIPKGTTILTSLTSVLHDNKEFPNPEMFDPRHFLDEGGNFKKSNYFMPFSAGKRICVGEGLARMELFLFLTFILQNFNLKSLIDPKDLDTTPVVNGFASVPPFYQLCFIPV

Chain of Cytochrome P450 3A4 (P08684 whole entry): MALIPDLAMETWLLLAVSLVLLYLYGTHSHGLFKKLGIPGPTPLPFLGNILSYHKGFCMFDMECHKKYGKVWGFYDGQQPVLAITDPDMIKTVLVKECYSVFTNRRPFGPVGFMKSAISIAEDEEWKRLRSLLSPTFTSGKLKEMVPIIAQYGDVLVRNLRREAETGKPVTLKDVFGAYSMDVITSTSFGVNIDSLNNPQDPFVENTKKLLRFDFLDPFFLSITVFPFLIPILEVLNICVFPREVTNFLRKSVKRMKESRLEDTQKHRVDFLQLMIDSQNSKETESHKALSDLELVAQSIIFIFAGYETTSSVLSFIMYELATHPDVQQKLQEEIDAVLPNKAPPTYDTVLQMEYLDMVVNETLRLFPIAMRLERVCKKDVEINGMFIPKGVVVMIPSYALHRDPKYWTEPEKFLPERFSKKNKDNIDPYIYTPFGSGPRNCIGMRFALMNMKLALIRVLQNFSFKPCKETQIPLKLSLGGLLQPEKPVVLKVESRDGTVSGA
Chain of Cytochrome P450 2C9 (P11712 whole entry): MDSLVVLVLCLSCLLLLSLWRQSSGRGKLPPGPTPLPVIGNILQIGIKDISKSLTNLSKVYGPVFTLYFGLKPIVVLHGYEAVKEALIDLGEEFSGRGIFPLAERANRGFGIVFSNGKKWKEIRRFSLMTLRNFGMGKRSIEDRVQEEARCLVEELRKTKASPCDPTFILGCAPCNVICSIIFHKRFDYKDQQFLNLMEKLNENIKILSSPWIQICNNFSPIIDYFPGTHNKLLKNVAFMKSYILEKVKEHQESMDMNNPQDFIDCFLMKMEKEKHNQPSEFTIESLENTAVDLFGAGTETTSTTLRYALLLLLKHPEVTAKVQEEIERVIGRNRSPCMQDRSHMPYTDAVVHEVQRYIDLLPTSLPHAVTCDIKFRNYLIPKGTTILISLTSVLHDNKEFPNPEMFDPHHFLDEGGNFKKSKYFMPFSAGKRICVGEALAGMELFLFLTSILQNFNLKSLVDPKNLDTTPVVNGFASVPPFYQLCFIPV
Chain of Cytochrome P450 2D6 (P10635 whole entry): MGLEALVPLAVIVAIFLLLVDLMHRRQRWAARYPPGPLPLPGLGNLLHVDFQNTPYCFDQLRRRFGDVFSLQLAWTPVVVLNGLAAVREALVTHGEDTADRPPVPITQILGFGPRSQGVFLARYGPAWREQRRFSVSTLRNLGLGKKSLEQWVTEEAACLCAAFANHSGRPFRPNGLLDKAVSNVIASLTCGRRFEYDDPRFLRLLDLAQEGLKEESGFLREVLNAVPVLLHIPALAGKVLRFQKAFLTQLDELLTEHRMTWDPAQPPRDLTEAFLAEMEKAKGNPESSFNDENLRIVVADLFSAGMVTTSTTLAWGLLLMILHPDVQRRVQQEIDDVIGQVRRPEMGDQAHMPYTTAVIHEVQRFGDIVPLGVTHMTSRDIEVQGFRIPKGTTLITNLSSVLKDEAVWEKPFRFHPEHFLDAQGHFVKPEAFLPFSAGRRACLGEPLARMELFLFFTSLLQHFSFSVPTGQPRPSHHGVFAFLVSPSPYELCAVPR

SMILES | solubility thermodynamic [1] | IC50 (Neuromedin-K receptor [2]) | Ki (Neuromedin-K receptor [3]) | IC50 (Cytochrome P450 2D6) | IC50 (Cytochrome P450 3A4) | IC50 (Cytochrome P450 1A2) | logD [4] | IC50 (Cytochrome P450 2C9) | IC50 (Cytochrome P450 2C19)
O=C(c1ccc(Cc2ccccc2)cc1)N1CCn2c(nnc2-c2ccccn2)C1 | 169 µM (≈ 66.8 µg/mL) | > 31.6 µM | > 31.6 µM | – | – | – | – | – | –
O=C(c1ccc(-c2ccc(Cl)cc2)cc1)N1CCn2c(nnc2-c2ccccn2)C1 | 5.3 µM (≈ 2.2 µg/mL) | 3.98 µM | 5.01 µM | – | – | – | – | – | –
CC(C)c1nc(-c2nnc3n2CCN(C(=O)c2ccc(-c4cccs4)cc2)[C@@H]3C)cs1 | 25 µM (≈ 11.2 µg/mL) | 0.00398 µM | 0.00251 µM | 27 µM | 35 µM | 17 µM | 4.4 | 4 µM | 12 µM
Cc1cccc(-c2nnc3n2CCN(C(=O)c2ccc(F)cc2)[C@@H]3C)n1 | 197 µM (≈ 69.2 µg/mL) | 0.0794 µM | 0.0631 µM | – | – | – | 1.6 | – | –
C[C@@H]1c2nnc(-c3csc(C(F)(F)F)n3)n2CCN1C(=O)c1ccc(-c2cccs2)cc1 | 11 µM (≈ 5.23 µg/mL) | 0.0631 µM | 0.0794 µM | > 100 µM | > 100 µM | 8 µM | 4.1 | 5 µM | 18 µM
O=C(c1cc(-c2ccc(Cl)cc2)n[nH]1)N1CCn2c(nnc2-c2ccccn2)C1 | 1.4 µM (≈ 0.568 µg/mL) | 1.58 µM | 1.58 µM | – | – | – | – | – | –
Cc1cccc(-c2nnc3n2CCN(C(=O)c2ccc(-c4cccs4)cc2)[C@@H]3C)n1 | 110 µM (≈ 45.7 µg/mL) | 0.01 µM | – | 86 µM | 45 µM | 57 µM | 3.4 | 18 µM | 26 µM
Cc1csc(-c2nnc3n2CCN(C(=O)c2ccc(-c4cccs4)cc2)[C@@H]3C)n1 | 50 µM (≈ 21.1 µg/mL) | – | 0.00631 µM | 42 µM | 11 µM | 8 µM | 2.9 | 8 µM | 18 µM
COc1ccc(-c2ccc(C(=O)N3CCn4c(nnc4-c4ccccn4)C3)cc2)cc1 | 6.4 µM (≈ 2.63 µg/mL) | > 31.6 µM | > 31.6 µM | – | – | – | – | – | –
Cc1nc(-c2nnc3n2CCN(C(=O)c2ccc(-c4cccs4)cc2)[C@H]3C)cs1 | – | – | – | – | – | – | 3.1 | – | –
C[C@@H]1c2nnc(-c3ccccn3)n2CCN1C(=O)c1ccc(F)cc1 | ≥ 200 µM | 0.794 µM | 0.794 µM | – | – | – | – | – | –
COc1cccc(C(=O)N2CCn3c(nnc3-c3ccccn3)C2)c1 | 196 µM (≈ 65.7 µg/mL) | > 31.6 µM | > 31.6 µM | – | – | – | – | – | –
Cc1nc(-c2nnc3n2CCN(C(=O)c2ccc(F)cc2)[C@@H]3C)cs1 | ≥ 200 µM | – | – | > 100 µM | 63 µM | > 100 µM | 1.3 | 56 µM | 44 µM
O=C(c1ccccc1F)N1CCn2c(nnc2-c2ccccn2)C1 | ≥ 200 µM | > 31.6 µM | > 31.6 µM | – | – | – | – | – | –
Cc1cncc(-c2nnc3n2CCN(C(=O)c2ccc(-c4cccs4)cc2)[C@@H]3C)n1 | 160 µM (≈ 66.6 µg/mL) | 0.02 µM | 0.0126 µM | > 100 µM | 2 µM | 50 µM | 2.7 | 17 µM | 39 µM
COc1ccccc1C(=O)N1CCn2c(nnc2-c2ccccn2)C1 | ≥ 200 µM | > 31.6 µM | > 31.6 µM | – | – | – | – | – | –
C[C@@H]1c2nnc(-c3csc(-c4ccccc4)n3)n2CCN1C(=O)c1ccc(F)cc1 | 179 µM (≈ 75.1 µg/mL) | 0.0158 µM | 0.0251 µM | 54 µM | 67 µM | 25 µM | 3.4 | 19 µM | 19 µM
C[C@H]1c2nnc(-c3ccccn3)n2CCN1C(=O)c1ccc(F)cc1 | ≥ 200 µM | 7.94 µM | 7.94 µM | – | – | – | – | – | –

The remaining lines, values ahead:

solubility thermodynamic [1] | IC50 (Neuromedin-K receptor [2]) | Ki (Neuromedin-K receptor [3]) | IC50 (Cytochrome P450 2D6) | IC50 (Cytochrome P450 3A4) | IC50 (Cytochrome P450 1A2) | logD [4] | IC50 (Cytochrome P450 2C9) | IC50 (Cytochrome P450 2C19) | SMILES
199 µM (≈ 64.3 µg/mL) | 6.31 µM | 5.01 µM | – | – | – | – | – | – | O=C(c1cccc(F)c1)N1CCn2c(nnc2-c2ccccn2)C1
12 µM (≈ 4.65 µg/mL) | 0.631 µM | 0.501 µM | – | – | – | – | – | – | O=C(c1ccc(-c2cccs2)cc1)N1CCn2c(nnc2-c2ccccn2)C1
194 µM (≈ 65.1 µg/mL) | > 31.6 µM | > 31.6 µM | – | – | – | – | – | – | COc1ccc(C(=O)N2CCn3c(nnc3-c3ccccn3)C2)cc1
≥ 200 µM | 0.501 µM | 0.501 µM | > 100 µM | > 100 µM | 69 µM | 1.4 | > 100 µM | 48 µM | Cc1cccc(-c2nnc3n2CCN(C(=O)c2ccc(F)cc2)C3)n1
≥ 200 µM | 6.31 µM | 6.31 µM | – | – | – | – | – | – | Cc1ccnc(-c2nnc3n2CCN(C(=O)c2ccc(F)cc2)C3)c1
≥ 200 µM | > 31.6 µM | > 31.6 µM | – | – | – | – | – | – | Cc1cccnc1-c1nnc2n1CCN(C(=O)c1ccc(F)cc1)C2
71 µM (≈ 27.4 µg/mL) | 10 µM | 15.8 µM | – | – | – | – | – | – | Cc1ccc(-c2ccc(C(=O)N3CCn4c(nnc4-c4ccccn4)C3)cc2)o1
10 µM (≈ 3.99 µg/mL) | 1.58 µM | 2 µM | – | – | – | – | – | – | O=C(c1ccc(-c2ccc(F)cc2)cc1)N1CCn2c(nnc2-c2ccccn2)C1
28 µM (≈ 10.7 µg/mL) | 1.58 µM | 1.26 µM | – | – | – | – | – | – | O=C(c1ccc(-c2ccccc2)cc1)N1CCn2c(nnc2-c2ccccn2)C1
≥ 200 µM | 2.51 µM | 1.58 µM | – | – | – | – | – | – | Cc1ccc(-c2nnc3n2CCN(C(=O)c2ccc(F)cc2)C3)nc1
193 µM (≈ 75.5 µg/mL) | 0.398 µM | 0.398 µM | > 100 µM | > 100 µM | 21 µM | – | > 100 µM | > 100 µM | O=C(c1ccc(F)cc1)N1CCn2c(nnc2-c2cccc(C(F)(F)F)n2)C1
